Results taken from patent publication US7696238B2, “Substituted benzo[d]isoxazol-3-yl amine compounds as analgesics” (Gruenenthal GmbH, priority 2005, dated 2010).

Biological target: T1, KCNQ2/3 ion channel (KCNQ2/3-expressing CHO-K1 cells) (Homo sapiens, UniProt O43525+O43526)
T1 construct: expressed in transfected cells; host or cells: CHO-K1
Assay: Fluorescence assay (FLIPR instrument, membrane potential dye) for substances acting agonistically on the KCNQ2/3 ion channel
Type: cell-based
Settings: difference between maximum and minimum values, agonistic action detected from a value of −40 (and below)
Description: Pharmacological Test Methods I. Fluorescence Assay (FLIPR™ Instrument) for the Identification of Substances Acting Agonistically on the KCNQ2/3 Ion Channel
On the day before the experiment, KCNQ2/3-expressing CHO-K1 cells and CHO-K1 empty strain cells were seeded out onto coated poly-D-lysine black/clear plates (Falcon/BD Company; Order No.: 356640) in a concentration of 20000 cells/100 μl MEM alpha, 50 ml FCS, 5.5 ml PIS/G/solution (100×) and then incubated for 20-24 hours in an incubator (37° C., 5% CO2). On the day of the experiment the HBSS/hepes working solution and the FMP/HBSS/hepes mixture (Membrane Potential Assay Kit Red (FMP), bulk format Cat. No. R8123) were initially prepared according to the following protocol:
• 1000 ml 1× HBSS buffer (Hank's Balanced Salt Solution (1×) (Gibco; No. 14025)+10 ml hepes (1M stock solution, pH 7.4; hepes Na salt (Sigma Company; No. H7006-500 g; storage at 4° C. in a refrigerator) 2. 1× FMP/HBSS/hepes working solution: • 6 ml HBSS/hepes buffer are added to 5 ml of the FMP solution stored at −20° C. (preparation see below; thawing out at room temperature). The test substances (2 mM batch solution in 100% DMSO) contained in drug plates (Costar 96-well plates, catalogue No. 3795) were then diluted by adding HBSS/hepes buffer to a concentration of 30 μM (3× concentrated). The assay plates on which the cells grow were washed once with 200 μl HBSS/hepes (Cellwash Washer, Labsystems Company, catalogue No. 5161550) and the remaining volume was removed by tapping out the inverted plate twice. 100 μl of the FMP/HBSS/hepes working solution were then added in each case to the cell plates and incubated for 1 hour in the CO2 incubator at 37° C. and 5% CO2. The measurements are then carried out with a FLIPR III instrument from the Molecular Devices company (96-format, using the 540-590 nm band-pass filter in the #2 localization). In the experimental setup of the FLIPR software, filter #2 should be selected. The cell plates and the substance plates were fed alternately into the input stack. A signal test was carried out in each case with the cell plates before adding the substance. The test substances were then added via the pipetting unit of the FLIPR (added volume 50 μl, 3× concentrated, end concentration 10 μM) to the cavities of the cell plates in a total volume of 150 μl/well. The threshold data of the FLIPR program were as follows:
The pipette tips were washed after each pipetting procedure 3 times with 1% DMSO in water. The times of the measurement intervals after addition of the test substances are as follows:
Total measurement time: 6 min/plate
The test samples were evaluated by calculating the difference between the maximum and minimum values. EC50/IC50 values are calculated using the Graph Pad Prism software.
Preparation of the membrane potential loading buffer (membrane potential assay kit red (FMP), bulk format cat. No. R8123) according to the manufacturer's instructions:
10 ml of the 10× assay buffer (component B) were diluted with 90 ml of sterile water and then adjusted to pH 7.4 with 1.0N NaOH (1× assay buffer). One vessel with the FLIPR membrane potential assay component A was completely dissolved in 100 ml 1× assay buffer and thoroughly mixed for 10 minutes with a magnetic stirrer. 5 ml aliquots were then stored at −20° C. (storage shelf life ca. 2 weeks).
An agonistic action can be detected starting from a value of −40 (and below).

Compared with `Fc1ccc2c(NCc3cccc(OCc4ccccc4)c3)noc2c1` [Example 173, (3-benzyloxybenzyl)-(6-fluorobenzo[d]isoxazol-3-yl)-amine], `CCCCc1ccc(CNc2noc3cc(F)ccc23)cc1` [Example 171, (4-butylbenzyl)-(6-fluorobenzo[d]isoxazol-3-yl)-amine] is higher in “FLIPR membrane potential fluorescence change (ΔF %, max minus min); negative values indicate KCNQ2/3 agonism” value: −55% for the first, −53% for the second.

Going from `Fc1cc(C(F)(F)F)ccc1CNc1noc2ccccc12` [Example 163, benzo[d]isoxazol-3-yl-(2-fluoro-4-trifluoromethyl-benzyl)-amine] to `FC(F)(F)Oc1ccc(CNc2noc3ccccc23)cc1` [Example 158, benzo[d]isoxazol-3-yl-(4-trifluoromethoxybenzyl)-amine], the “FLIPR membrane potential fluorescence change (ΔF %, max minus min); negative values indicate KCNQ2/3 agonism” value rises from −56% to −53%.

Compared with `Cc1cc(C)cc(CNc2noc3c(F)cccc23)c1` [Example 167, (3,5-dimethylbenzyl)-(7-fluorobenzo[d]isoxazol-3-yl)-amine], `Fc1cccc2c(NCc3cccc(OC(F)(F)F)c3)noc12` [Example 203, (7-fluorobenzo[d]isoxazol-3-yl)-(3-trifluoromethoxy-benzyl)-amine] is higher in “FLIPR membrane potential fluorescence change (ΔF %, max minus min); negative values indicate KCNQ2/3 agonism” value: −61% for the first, −49% for the second.

Going from `CCCCc1ccc(CNc2noc3cc(Cl)ccc23)cc1` [Example 161, (4-butylbenzyl)-(6-chloro-benzo[d]isoxazol-3-yl)-amine] to `COc1ccc(NC(=S)Nc2noc3cc(Cl)ccc23)cc1` [Example 106, 1-(6-chlorobenzo[d]isoxazol-3-yl)-3-(4-methoxyphenyl)-thiourea], the “FLIPR membrane potential fluorescence change (ΔF %, max minus min); negative values indicate KCNQ2/3 agonism” value falls from −40% to −59%.

Going from `COc1ccc(Cl)cc1NC(=S)Nc1noc2cccc(OC)c12` [Example 132, 1-(5-chloro-2-methoxyphenyl)-3-(4-methoxybenzo[d]isoxazol-3-yl)-thiourea] to `CN(C)c1cccc2onc(NC(=S)Nc3cccc(Cl)c3)c12` [Example 56, 1-(3-chlorophenyl)-3-(4-dimethylaminobenzo[d]isoxazol-3-yl)-thiourea], the “FLIPR membrane potential fluorescence change (ΔF %, max minus min); negative values indicate KCNQ2/3 agonism” value falls from −45% to −55%.

First: Cc1ccccc1NC(=S)Nc1noc2cccc(Cl)c12 [Example 51, 1-(4-chlorobenzo[d]isoxazol-3-yl)-3-o-tolyl-thiourea]
Second: CN(C)c1cccc2onc(NC(=S)NCc3ccccc3)c12 [Example 64, 1-benzyl-3-(4-dimethylamino-benzo[d]isoxazol-3-yl)-thiourea]
The “FLIPR membrane potential fluorescence change (ΔF %, max minus min); negative values indicate KCNQ2/3 agonism” value of the first is higher: −50% for the first, −52% for the second.

First: C=CCNC(=S)Nc1noc2c(F)cccc12 [Example 123, 1-allyl-3-(7-fluorobenzo[d]-isoxazol-3-yl)-thiourea]
Second: C=CCNC(=S)Nc1noc2ccc(C)cc12 [Example 93, 1-allyl-3-(5-methylbenzo[d]isoxazol-3-yl)-thiourea]
The “FLIPR membrane potential fluorescence change (ΔF %, max minus min); negative values indicate KCNQ2/3 agonism” value of the first is lower: −55% for the first, −45.5% for the second.

Compared with `CCCCCCCCCNC(=S)Nc1noc2cccc(OCc3ccc(C)cc3)c12` [Example 87, 1-[4-(4-methylbenzyloxy)-benzo[d]isoxazol-3-yl]-3-nonyl-thiourea], `CN(C)c1ccc(NC(=S)Nc2noc3cccc(OCC(F)(F)F)c23)cc1` [Example 92, 1-(4-dimethylaminophenyl)-3-[4-(2.2,2-trifluoroethoxy)-benzo[d]isoxazol-3-yl]-thiourea] is higher in “FLIPR membrane potential fluorescence change (ΔF %, max minus min); negative values indicate KCNQ2/3 agonism” value: −66.5% for the first, −51% for the second.

Compared with `COC(=O)C(C)NC(=S)Nc1noc2ccc(F)cc12` (stereo not shown) [Example 97, 2-[3-(5-fluorobenzo(d]isoxazol-3-yl)-thioureido]-propionic acid methyl ester], `CC(C)CNC(=S)Nc1noc2cccc(N(C)C)c12` [Example 54, 1-(4-dimethylamino-benzo[d]isoxazol-3-yl)-3-isobutyl-thiourea] is lower in “FLIPR membrane potential fluorescence change (ΔF %, max minus min); negative values indicate KCNQ2/3 agonism” value: −58.5% for the first, −64% for the second.

Biological target: T2, hKCNQ2/3 (stably transfected hKCNQ2/3 CHO-K1 cell line) (Homo sapiens, UniProt O43525+O43526)
T2 construct: expressed in transfected cells; host or cells: CHO-K1
Assay: Voltage clamp (patch-clamp) measurements, current increase relative to retigabin
Type: cell-based
Settings: test substance 10 μM at −40 mV; current increase standardized to retigabin (10 μM) effect
Description: II. Voltage Clamp Measurements
In order to confirm electrophysiologically a KCNQ2/3 agonistic action of the substances, patch-clamp measurements [see Hamill O P, Marty A, Neher E, Sakmann B, Sigworth F J: “Improved patch-clamp techniques for high-resolution current recording from cells and cell-free membrane patches”, Pflugers Arch. 1981 August; 391(2):85-100] were carried out in the voltage clamp mode on a stably transfected hKCNQ2/3 CHO-K1 cell line. After formation of the gigaseal the cells were first of all clamped at a holding potential of −60 mV. Depolarising voltage jumps were then applied up to a potential of +20 mV (increment: 20 mV, duration: 1 second), in order to confirm the functional expression of KCNQ2/3 typical currents. The substances were tested at a potential of −40 mV. The current increase induced by retigabin (10 μM) was first of all recorded on each cell at −40 mV as positive control. After completely washing out the retigabin effect (duration: 80 sec) the test substance (10 μM) was applied. The current increase induced by the test substance was standardized to the retigabin effect and stated as relative efficacy (see below).

Compared with `Fc1ccc2c(NCc3cccc(OCc4ccccc4)c3)noc2c1` [Example 173, (3-benzyloxybenzyl)-(6-fluorobenzo[d]isoxazol-3-yl)-amine], `Cc1cc(CNc2noc3cc(F)ccc23)cc(C)c1OCc1ccccc1` [Example 170, (4-benzyloxy-3,5-dimethyl-benzyl)-(6-fluorobenzo[d]isoxazol-3-yl)-amine] is lower in “Voltage clamp: relative efficacy with respect to retigabin [10 μM]” value (shortened to “Voltage clamp: relative efficacy”): 0.84 for the first, 0.72 for the second.

First: COc1ccccc1NC(=S)Nc1noc2cccc(OC)c12 [Example 130, 1-(4-methoxybenzo[d]isoxazol-3-yl)-3-(2-methoxyphenyl)-thiourea]
Second: N#Cc1cccc(NC(=S)Nc2noc3cc(F)ccc23)c1 [Example 112, 1-(3-cyanophenyl)-3-(6-fluoro-benzo[d]isoxazol-3-yl)-thiourea]
The “Voltage clamp: relative efficacy” value of the first is lower: 0.2 for the first, 0.3 for the second.

First: Fc1cc(C(F)(F)F)ccc1CNc1noc2ccccc12 [Example 163, benzo[d]isoxazol-3-yl-(2-fluoro-4-trifluoromethyl-benzyl)-amine]
Second: CC(Nc1noc2ccccc12)c1ccc(C(F)(F)F)cc1 (stereo not shown) [Example 1, Benzo[d]isoxazol-3-yl-[1-(4-trifluoro-methylphenyl)-ethyl]-amine]
The “Voltage clamp: relative efficacy” value of the first is higher: 1.29 for the first, 0.42 for the second.

First: CCCCc1ccc(CNc2noc3cc(F)ccc23)cc1 [Example 171, (4-butylbenzyl)-(6-fluorobenzo[d]isoxazol-3-yl)-amine]
Second: CCCCc1ccc(CNc2noc3cc(Cl)ccc23)cc1 [Example 161, (4-butylbenzyl)-(6-chloro-benzo[d]isoxazol-3-yl)-amine]
The “Voltage clamp: relative efficacy” value of the first is higher: 0.68 for the first, 0.61 for the second.

Compared with `CC(Nc1noc2ccccc12)c1ccc(SC(F)(F)F)cc1` (stereo not shown) [Example 2, Benzo[d]isoxazol-3-yl-[1-(4-trifluoromethyl-sulfanylphenyl)-ethyl]-amine], `FC(F)(F)Sc1ccc(CNc2noc3ccc(Br)cc23)cc1` [Example 176, (5-bromobenzo[d]isoxazol-3-yl)-(4-trifluoromethyl-sulfanyl-benzyl)-amine] is higher in “Voltage clamp: relative efficacy” value: 0.37 for the first, 0.62 for the second.

Going from `COc1ccc(CNc2noc3cc(F)ccc23)cc1Br` [Example 168, (3-bromo-4-methoxy-benzyl)-(6-fluorobenzo[d]-isoxazol-3-yl)-amine] to `Fc1ccc2onc(NCc3ccc(SC(F)(F)F)cc3)c2c1` [Example 162, (5-fluorobenzo[d]isoxazol-3-yl)-(4-trifluoromethyl-sulfanylbenzyl)-amine], the “Voltage clamp: relative efficacy” value rises from 0.35 to 0.79.

For `Cc1cc(C)cc(CNc2noc3c(F)cccc23)c1` [Example 167, (3,5-dimethylbenzyl)-(7-fluorobenzo[d]isoxazol-3-yl)-amine], the “Voltage clamp: relative efficacy” value was 0.25.
